Read-outs that look alike come from different tables or passages of the source.

One may read the Solubility as how much of the substance goes into solution per volume.

For one series, the system named is 2019-nCoV. As to conditions: block of COVID-19 infection in vitro, Wang et al.; read-out: half-maximal effective concentration (EC50); cited from earlier work.
Series [1] can be described thus: Thermal decomposition during thermal aerosolization (LC-HR-MS). Type of series: physicochemical. As to conditions: LC-HR-MS of aerosol trapped on Cambridge pad filter. As to the method:
Using the described aerosol generation and characterization setup, the aerosol produced from the device was pushed through the Cambridge filter pad connected to an impinger filled with 5 mL of ethanol to assess the transfer amount of hydroxychloroquine from the liquid to the aerosol. Compound extraction from the Cambridge filter pads was performed by adding 5 mL of ethanol from the impinger and another 5 mL of fresh ethanol to the filter pad. The two fractions were combined (total volume of 10 mL) for quantification. Chemical analyses for drug solubility and transfer rate assessment were performed by liquid chromatography equipped with a HILIC BEH amide column (50 × 3 mm, 1.7 µm, Waters, Manchester, UK) coupled to high resolution accurate mass spectrometry (Vanquish Duo - Q Exactive HF system, LC-HR-MS, ThermoFisher Scientific, Waltham, MA, USA). Mobile phases were composed of acetonitrile containing 0.1% formic acid and 10 mM ammonium formate. Samples were diluted to fit the calibration curve built from 9-calibrant levels (5-100 ng/mL). A volume of 5 µL diluted solution was injected. Mass spectrometry detection was realized in positive electrospray ionization with a mass resolution of 60,000 by scanning full scan mass from m/z 50-350.

A short description of series [2]: Solubility in propylene glycol and solvent mixtures by LC-HR-MS. Particulars: for Accuracy (ratio of measured concentration to calculated concentration): propylene glycol, 40° C. It counts as physicochemical. How it is done:
Chloroquine and hydroxychloroquine were synthesized according to published procedures at WuXi AppTec (Wuhan, China). […] The solubility of HCQ in propylene glycol (PG) was evaluated by preparing formulations at various concentrations and assessing their solubility by performing liquid chromatography-high resolution-mass spectrometry (LC-HR-MS). The solubility of HCQ in PG was measured at 40° C. and atmospheric pressure (~100 kPa) -Table 1a.
The solubility of HCQ in different solvent mixtures comprising propylene glycol (PG); glycerol and/or water was evaluated by preparing formulations and assessing the solubility of HCQ by performing liquid chromatography-high resolution-mass spectrometry (LC-HR-MS) as shown in Table 1b.

Series [3] can be described thus: Aerosol particle size distribution (Aerodynamic Particle Sizer). It counts as physicochemical. Particulars: thermal aerosol from 100 mg/mL in propylene glycol, heater 200-220° C. As to the method: A liquid formulation containing a solution of hydroxychloroquine in propylene glycol at a concentration of 100 mg/mL was prepared and filled into a consumable cartridge.
The liquid formulation was nebulized using a device comprising a mesh heating element as described in WO2018153608 (A1). Aerosol from the liquid formulation was generated by thermal aerosolization. The temperature of the heater was maintained between 200-220° C. A programmable dual syringe pump (PDSP) with a simulated inhalation regimen of 55 mL delivered in 3 sec puff duration and 30 sec interval (including the subsequent discharge from the pump during piston down stroke) was used to transfer the aerosol. The PDSP pump was attached to a SUPER SESI (Fossilion Technologies, Madrid, SP) interfaced with Q Exactive HF system (Thermo Fisher Scientific, Waltham, MA, USA) as shown in FIG. 2.
The particle size distribution of the aerosols was measured using the TSI 3321 Aerodynamic Particle Sizer (APS, TSI Incorporated, Shoreview, MN, USA). To reach the operational flowrate of 5 L/min and to stay within the limits of detection concerning large particle number densities obtained in the experiment, the […] was connected with a 3302A Aerosol Diluter (TSI Incorporated), upstream of the APS using a 30 cm conductive tube with a 1-cm inner diameter (FIG. 3). […]

In series [4] the test system is SARS-CoV-2 clinically isolated strain. Particulars: cited from earlier work; for EC50: Vero cells, Yao et al.

`CCN(CC)CCCC(C)Nc1ccnc2cc(Cl)ccc12` (centres unmarked) [chloroquine]: the EC50 in the series with 2019-nCoV is 1.13 µM.
Take hydroxychloroquine: the “decomposition during thermal aerosolization” value in series [1] is “no decomposition”. Besides, the Solubility in series [2] (Mix 1: propylene glycol 75%, glycerol 20%, water 5%) was 151 mg/mL; in series [2] (Mix 2: propylene glycol 75%, glycerol 15%, water 10%), 141 mg/mL; in series [2] (Mix 3: propylene glycol 45%, glycerol 45%, water 10%), 42 mg/mL; in series [2] (Mix 4: propylene glycol 90%, glycerol 10%, water 0%), 150 mg/mL; in series [2] (Mix 5: propylene glycol 90%, glycerol 0%, water 10%) it was 324 mg/mL; in series [2] (Mix 6: propylene glycol 85%, glycerol 0%, water 15%), 261 mg/mL. Further, the Solubility amounted to 322 mg/mL in series [2] (Mix 7: propylene glycol 95%, glycerol 0%, water 5%) and 139 mg/mL in series [2] (Mix 8: propylene glycol 100, glycerol 0%, water 0%). In addition, the “Accuracy (ratio of measured concentration to calculated concentration)” value is on record as 78% in series [2] (calculated concentration 1.3 mg/mL); 103% in series [2] (calculated concentration 10.2 mg/mL); 104% in series [2] (calculated concentration 20.9 mg/mL); 92% in series [2] (calculated concentration 40.6 mg/mL); 96% in series [2] (calculated concentration 100.6 mg/mL). In series [3], the “median aerodynamic diameter of aerosol particles” value is on record as 1.3 µm. For the same molecule, the EC50 in series [4] (24 hours) was 6.14 µM; in series [4] (48 hours) it was 0.72 µM. Also, the “in vitro EC50” value in series [4] (value from Yao et al.) was 0.242 µg/mL. The “in vitro EC90” value in series [4] (value from Yao et al.) is 1.68 µg/mL.

These data come from patent US20230338285A1, “PHARMACEUTICAL COMPOSITION COMPRISING HYDROXYCHLOROQUINE AND USES THEREOF” (priority 2020, published 2023).
